The results in this text go back to patent US4959375A, “Piperidine derivatives useful as 5-HT3 antagonists” (John Wyeth & Brothers Limited, priority 1988, dated 1990).

In this experiment the target is T1, 5-HT3 receptors (Oryctolagus cuniculus, UniProt A0A5F9C9J3).
T1 construct: 5-HT3 receptors present on sympathetic nerve terminals in the heart; from tissue; host or cells: isolated right atrium of the rabbit heart
T1 sequence (A0A5F9C9J3 1-494): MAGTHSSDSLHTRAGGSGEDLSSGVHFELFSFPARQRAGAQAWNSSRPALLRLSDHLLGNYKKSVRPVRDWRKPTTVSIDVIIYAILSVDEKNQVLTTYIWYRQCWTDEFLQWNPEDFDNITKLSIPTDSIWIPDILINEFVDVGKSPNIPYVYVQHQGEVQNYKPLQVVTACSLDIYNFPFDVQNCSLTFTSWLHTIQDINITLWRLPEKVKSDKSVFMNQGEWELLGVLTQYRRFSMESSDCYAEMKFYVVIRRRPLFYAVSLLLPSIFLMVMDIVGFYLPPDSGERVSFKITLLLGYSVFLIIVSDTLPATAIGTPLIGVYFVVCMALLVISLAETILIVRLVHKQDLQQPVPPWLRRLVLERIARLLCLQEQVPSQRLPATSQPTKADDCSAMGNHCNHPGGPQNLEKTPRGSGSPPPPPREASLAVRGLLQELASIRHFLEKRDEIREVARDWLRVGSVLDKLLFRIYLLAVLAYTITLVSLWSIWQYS
Description: 5-HT3 antagonistic activity in the isolated right atrium of the rabbit heart. The note with it: chronotropic response to 10^-5 M 5-HT, read-out: -log IC50 (IC50 is the concentration of antagonist which reduces the chronotropic response to 10^-5 M 5-HT by 50%) (converted). The protocol: The compounds of the invention are tested for 5-HT3 antagonistic activity in the isolated right atrium of the rabbit heart based upon the method of Fozard J. R., Naunyn Schmiedeberg's Arch. Pharmacol., 1984, 326, 36-44. This procedure relies upon the ability of 5-HT to stimulate 5-HT3 receptors present on sympathetic nerve terminals in the heart, causing release of noradrenaline which evokes an increase in the spontaneous rate of beating. The antagonist potency is expressed as -log IC50 (where IC50 is the concentration of antagonist which reduces the chronotropic response to 10^--5 M 5-HT by 50%).

Regarding `CN(C)C1CCCN(C(=O)c2c[nH]c3ccccc23)C1` (centres unmarked) [Example 1, 3-Dimethylamino-1-[[(1H)-indol 3 yl]carbonyl]piperidine], the IC50 is 20 nM. For the compound `CN(C)C1CCCN(C(=O)c2n[nH]c3ccccc23)C1` (centres unmarked) [Example 4, 3-Dimethylamino-1-[[(1H)-indazol 3 yl]carbonyl]piperidine], the IC50 was 7.94 nM.
